Experimental findings from US20250368633A1, “AZEPINE FUSED RING COMPOUND AS RIPK1 INHIBITOR AND USE THEREOF” (ARTIVILA BIOPHARMA, priority 2022, published 2025) are described below.

Assay [1] concerns the target T1, RIPK1 kinase (Homo sapiens, UniProt Q13546).
T1 construct: purchased Promega VA7593
T1 sequence (Q13546 1-671): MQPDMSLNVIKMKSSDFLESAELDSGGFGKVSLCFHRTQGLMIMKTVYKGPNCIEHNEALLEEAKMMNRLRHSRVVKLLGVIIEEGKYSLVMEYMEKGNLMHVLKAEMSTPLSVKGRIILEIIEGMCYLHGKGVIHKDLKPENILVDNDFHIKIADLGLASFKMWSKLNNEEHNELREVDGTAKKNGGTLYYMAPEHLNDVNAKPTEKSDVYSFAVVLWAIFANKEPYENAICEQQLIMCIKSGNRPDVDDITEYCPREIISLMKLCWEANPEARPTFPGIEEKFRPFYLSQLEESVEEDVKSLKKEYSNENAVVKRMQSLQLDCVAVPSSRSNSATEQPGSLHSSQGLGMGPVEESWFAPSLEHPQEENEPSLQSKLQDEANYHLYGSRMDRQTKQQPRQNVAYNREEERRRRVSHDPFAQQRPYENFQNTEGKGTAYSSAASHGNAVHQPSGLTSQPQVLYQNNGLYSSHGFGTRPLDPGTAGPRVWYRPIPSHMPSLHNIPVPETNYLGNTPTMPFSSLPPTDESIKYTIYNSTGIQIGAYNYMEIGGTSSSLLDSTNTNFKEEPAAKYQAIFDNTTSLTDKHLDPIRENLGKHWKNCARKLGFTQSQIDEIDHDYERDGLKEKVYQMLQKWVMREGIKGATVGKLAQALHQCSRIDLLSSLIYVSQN
As to the kind of experiment: In vitro RIPK1 kinase activity assay (ADP-Glo), inhibition by compounds at 1 μM. Conditions: compound 1 μM; ATP 10 μM; MBP substrate 100 μg/mL; read-out: RIPK1 kinase activity inhibition rate range. The format is biochemical. In outline: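 Read by ADP-Glo chemiluminescence as percent inhibition: RIPK1 kinase, 15-min room-temperature compound preincubation, then 1-h reaction with MBP (100 μg/mL final) and ATP (10 μM final). Enzyme level was set by titration.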

The target of assay [2] is T1, RIPK1 kinase. As to the kind of experiment: In vitro RIPK1 kinase activity IC50 assay (ADP-Glo). The class given is biochemical. As to conditions: ATP 10 μM; MBP substrate 100 μg/mL; 8 concentration points; read-out: IC50 range of compounds for RIPK1 kinase activity. As for the experimental part:
RIPK1 kinase activity was assayed using the ADP-Glo assay and RIPK1 kinase reaction system (Promega, catalog number: VA7593). The RIPK1 kinase activity assay was performed according to the Promega kit manual.
The experimental method was briefly described as below. The concentration of RIPK1 kinase in the RIPK1 kinase reaction system was determined by kinase titration and S/B10. The compound was diluted with 1× kinase buffer D (1% DMSO), 1 μL of 1 mM compound DMSO stock solution was added to 19 μL 1× kinase buffer D, and the compound was serially diluted with 1× kinase buffer D at a ratio of 1:5, for a total of 8 concentration points, and a control with the same DMSO volume was set. RIPK1 kinase was diluted with 1× kinase buffer D. 2.5×ATP/substrate was diluted with 1× kinase buffer D. The final concentration of ATP in the kinase reaction system was 10 μM. The final concentration of MBP substrate was 100 μg/mL. 1 μL of diluted compound and 2 μL of diluted RIPK1 kinase were mixed, incubated at room temperature for 15 minutes, 2 μL of 2.5×ATP/substrate was added, mixed, and incubated at room temperature for 1 hour. 5 μL ADP-Glo reagent was added to each well and incubated at room temperature for 1 hour. 10 μL ADP detection reagent was added to each well and incubated at room temperature for another 0.5-1 hour. The chemiluminescent signal was read with a microplate reader and the kinase activity inhibition rate was calculated. IC50 was obtained by fitting the nonlinear regression curve log [inhibitor] vs. response-variable slope (four parameters) in GraphPad Prism.

As usually defined, the inhibition is the share of the control response that was lost under treatment. Usually IC50 stands for the point on the concentration scale where inhibition reaches its midpoint.

`CN1C(=O)[C@@H](NC(=O)C(=O)NCCc2ccc(F)cc2)COc2ccc(C#CCCO)cc21` [Example 35, (S)—N^1-(4-fluorophenethyl)-N^2-(7-(4-hydroxybut-1-yn-1-yl)-5-methyl-4-oxo-2,3,4,5-tetrahydrobenzo[b][1,4]oxazepin-3-yl)oxalamide]: the inhibition at 1 µM on RIPK1 kinase [1] fell in the range of 50 to 74%. In addition, the IC50 on RIPK1 kinase [2] was below 100 nM.

For `CN1C(=O)[C@@H](NC(=O)C(=O)NCCc2cc(F)cc(F)c2)COc2ccc(C#CCCO)cc21` [Example 36, (S)—N^1-(3,5-difluorophenethyl)-N^2-(7-(4-hydroxybut-1-yn-1-yl)-5-methyl-4-oxo-2,3,4,5-tetrahydrobenzo[b][1,4]oxazepin-3-yl)oxalamide], the inhibition at 1 µM on RIPK1 kinase [1] was at least 75%. In addition, on RIPK1 kinase [2], the half-maximal inhibitory concentration (IC50) was below 100 nM.

As for `CN1C(=O)[C@@H](NC(=O)C(=O)NCc2cccc(F)c2)COc2ccc(C#CCCO)cc21` [Example 39, (S)—N^1-(3-fluorobenzyl)-N^2-(7-(4-hydroxybut-1-yn-1-yl)-5-methyl-4-oxo-2,3,4,5-tetrahydrobenzo[b][1,4]oxazepin-3-yl)oxalamide], at RIPK1 kinase [1], the inhibition at 1 µM was at least 75%. The IC50 on RIPK1 kinase [2] was below 100 nM.

Regarding `CN1C(=O)[C@@H](NC(=O)C(=O)NCc2ccc(F)cc2)COc2ccc(C#CCCO)cc21` [Example 40, (S)—N^1-(4-fluorobenzyl)-N^2-(7-(4-hydroxybut-1-yn-1-yl)-5-methyl-4-oxo-2,3,4,5-tetrahydrobenzo[b][1,4]oxazepin-3-yl)oxalamide], the inhibition at 1 µM on RIPK1 kinase [1] was at least 75%. Moreover, the IC50 on RIPK1 kinase [2] was below 100 nM.

In the case of `CN1C(=O)[C@@H](NC(=O)C(=O)NCCc2cccc(F)c2)COc2ccc(C#CC(C)(C)O)cc21` [Example 42, (S)—N^1-(3-fluorophenethyl)-N^2-(7-(3-hydroxy-3-methylbut-1-yn-1-yl)-5-methyl-4-oxo-2,3,4,5-tetrahydrobenzo[b][1,4]oxazepin-3-yl)oxalamide], at RIPK1 kinase [1], the inhibition at 1 µM is at least 75%. In addition, the IC50 at RIPK1 kinase [2] was below 100 nM.

`CN1C(=O)[C@@H](NC(=O)C(=O)NCCc2ccccc2)COc2ccc(C#CC3(O)COC3)cc21` [Example 43, (S)—N^1-(7-((3-hydroxyoxetan-3-yl)ethynyl)-5-methyl-4-oxo-2,3,4,5-tetrahydrobenzo[b][1,4]oxazepin-3-yl)-N^2-phenethyloxalamide]: the inhibition at 1 µM at RIPK1 kinase [1] was at least 75%. The IC50 at RIPK1 kinase [2] was below 100 nM.

With `CN1C(=O)[C@@H](NC(=O)C(=O)NCCc2ccccc2)COc2ccc(C#CC3(O)CCCCC3)cc21` [Example 44, (S)—N^1-(7-((1-hydroxycyclohexyl)ethynyl)-5-methyl-4-oxo-2,3,4,5-tetrahydrobenzo[b][1,4]oxazepin-3-yl)-N^2-phenethyloxalamide], the inhibition at 1 µM at RIPK1 kinase [1] lay in the range of 50 to 74%. Further, the IC50 on RIPK1 kinase [2] was below 100 nM.

For `C/C(C#Cc1ccc2c(c1)N(C)C(=O)[C@@H](NC(=O)C(=O)NCCc1ccccc1)CO2)=C/CO` [Example 45, (S,Z)-N^1-(7-(5-hydroxy-3-methylpent-3-en-1-yn-1-yl)-5-methyl-4-oxo-2,3,4,5-tetrahydrobenzo[b][1,4]oxazepin-3-yl)-N^2-phenethyloxalamide], on RIPK1 kinase [1], the inhibition at 1 µM is at least 75%. The IC50 at RIPK1 kinase [2] was below 100 nM.

With `CN1C(=O)[C@@H](NC(=O)C(=O)NCCc2ccccc2)COc2ccc(C#CCN3CCC(O)C3)cc21` (stereo partly drawn) [Example 46, N^1-((3S)-7-(3-(3-hydroxypyrrolidin-1-yl)prop-1-yn-1-yl)-5-methyl-4-oxo-2,3,4,5-tetrahydrobenzo[b][1,4]oxazepin-3-yl)-N^2-phenethyloxalamide], the inhibition at 1 µM at RIPK1 kinase [1] is at least 75%. Further, the IC50 on RIPK1 kinase [2] is below 100 nM.

As for `CN1C(=O)[C@@H](NC(=O)C(=O)NCCc2ccccc2)COc2ccc(C#CCN3CCC(=O)CC3)cc21` [Example 47, (S)—N^1-(5-methyl-4-oxo-7-(3-(4-oxopiperidin-1-yl)prop-1-yn-1-yl)-2,3,4,5-tetrahydrobenzo[b][1,4]oxazepin-3-yl)-N^2-phenethyloxalamide], the inhibition at 1 µM on RIPK1 kinase [1] was at least 75%. For the same molecule, at RIPK1 kinase [2], the IC50 was below 100 nM.

Take `CN1C(=O)[C@@H](NC(=O)C(=O)NCCc2ccccc2)COc2ccc(C#CCN3CCOCC3)cc21` [Example 48, (S)—N^1-(5-methyl-7-(3-morpholinoprop-1-yn-1-yl)-4-oxo-2,3,4,5-tetrahydrobenzo[b][1,4]oxazepin-3-yl)-N^2-phenethyloxalamide]: the inhibition at 1 µM at RIPK1 kinase [1] was 50 to 74%. Also, at RIPK1 kinase [2], the IC50 is below 100 nM.

On to `CN1C(=O)[C@@H](NC(=O)C(=O)NCCc2ccccc2)COc2ccc(C#CCCN)cc21` [Example 50, (S)—N^1-(7-(4-aminobut-1-yn-1-yl)-5-methyl-4-oxo-2,3,4,5-tetrahydrobenzo[b][1,4]oxazepin-3-yl)-N^2-phenethyloxalamide], for which the inhibition at 1 µM on RIPK1 kinase [1] is at least 75%. At RIPK1 kinase [2], the IC50 is below 100 nM.

As for `CN1C(=O)[C@@H](NC(=O)C(=O)NCCc2ccccc2)COc2ccc(C#CCCNS(C)(=O)=O)cc21` [Example 51, (S)—N^1-(5-methyl-7-(4-(methylsulfonamido)but-1-yn-1-yl)-4-oxo-2,3,4,5-tetrahydrobenzo[b][1,4]oxazepin-3-yl)-N^2-phenethyloxalamide], the inhibition at 1 µM at RIPK1 kinase [1] fell in the range of 25 to 49%. Besides, at RIPK1 kinase [2], the 50% inhibitory concentration (IC50) is below 100 nM.

In the case of `COCC#Cc1ccc2c(c1)N(C)C(=O)[C@@H](NC(=O)C(=O)NCCc1ccccc1)CO2` [Example 52, (S)—N^1-(7-(3-methoxyprop-1-yn-1-yl)-5-methyl-4-oxo-2,3,4,5-tetrahydrobenzo[b][1,4]oxazepin-3-yl)-N^2-phenethyloxalamide], on RIPK1 kinase [1], the inhibition at 1 µM is at least 75%. Moreover, the IC50 at RIPK1 kinase [2] is below 100 nM.

In the case of `CN1C(=O)C(NC(=O)C(=O)NCCc2ccccc2)CCc2ccc(Br)cc21` (stereo not shown) [Example 61, N^1-(8-bromo-1-methyl-2-oxo-2,3,4,5-tetrahydro-1H-benzo[b]azepin-3-yl)-N^2-phenethyloxalamide], the inhibition at 1 µM on RIPK1 kinase [1] is at least 75%. Moreover, at RIPK1 kinase [2], the IC50 was below 100 nM.

For `CN1C(=O)C(NC(=O)C(=O)NCCc2ccccc2)CCc2ccc(C#CC3CC3)cc21` (stereo not shown) [Example 62, N^1-(8-(cyclopropylethynyl)-1-methyl-2-oxo-2,3,4,5-tetrahydro-1H-benzo[b]azepin-3-yl)-N^2-phenethyloxalamide], on RIPK1 kinase [1], the inhibition at 1 µM was at least 75%. Further, on RIPK1 kinase [2], the IC50 was below 100 nM.

Take `CN1C(=O)C(NC(=O)C(=O)NCCc2ccccc2)CCc2ccc(C#CCCO)cc21` (stereo not shown) [Example 65, N^1-(8-(4-hydroxybut-1-yn-1-yl)-1-methyl-2-oxo-2,3,4,5-tetrahydro-1H-benzo[b]azepin-3-yl)-N^2-phenethyloxalamide]: at RIPK1 kinase [1], the inhibition at 1 µM is at least 75%. Besides, the 50% inhibitory concentration (IC50) at RIPK1 kinase [2] was below 100 nM.

Turning to `CN1C(=O)C(NC(=O)C(=O)NCCc2ccccc2)CCc2ccc(C#CC3CCNCC3)cc21` (stereo not shown) [Example 66, N^1-(1-methyl-2-oxo-8-(piperidin-4-ylethynyl)-2,3,4,5-tetrahydro-1H-benzo[b]azepin-3-yl)-N^2-phenethyloxalamide], the inhibition at 1 µM on RIPK1 kinase [1] fell in the range of 50 to 74%. The concentration for half-maximal inhibition (IC50) on RIPK1 kinase [2] was below 100 nM.

As for `CN1C(=O)[C@@H](NC(=O)C(=O)NCCc2ccccc2)COc2ccc(C#CC3CCN(CC#N)CC3)cc21` [Example 74, (S)—N^1-(7-((1-(cyanomethyl)piperidin-4-yl)ethynyl)-5-methyl-4-oxo-2,3,4,5-tetrahydrobenzo[b][1, 4]oxazepin-3-yl)-N^2-phenethyloxalamide], the inhibition at 1 µM at RIPK1 kinase [1] was 50 to 74%. The half-inhibitory concentration (IC50) at RIPK1 kinase [2] was below 100 nM.

In the case of `CN1C(=O)[C@@H](NC(=O)C(=O)NCCc2ccccc2)COc2ccc(C#CC3COC3)cc21` [Example 76, (S)—N^1-(5-methyl-7-(oxetan-3-ylethynyl)-4-oxo-2,3,4,5-tetrahydrobenzo[b][1,4]oxazepin-3-yl)-N^2-phenethyloxalamide], the inhibition at 1 µM at RIPK1 kinase [1] was 50 to 74%. Moreover, the concentration for half-maximal inhibition (IC50) on RIPK1 kinase [2] was below 100 nM.
